In brackets after ≈: the same amount, converted by molar mass. Like-named read-outs stand apart in the source and are kept apart here. Values belong to the compound of their own block, whether it stands above or below them.
What was measured:
oleamide hydrolase [1] = molecular target: T1, oleamide hydrolase (Rattus norvegicus, UniProt P97612); test: Oleamide hydrolase inhibition, ammonia production measured with ion-selective electrode; assay type: biochemical
T1 construct: The enzyme was used as a crude, heterogenous, membrane-containing preparation from rat liver; from tissue; host or cells: rat liver plasma membrane preparation (12-14 rat livers), crude
T1 sequence (P97612 1-579): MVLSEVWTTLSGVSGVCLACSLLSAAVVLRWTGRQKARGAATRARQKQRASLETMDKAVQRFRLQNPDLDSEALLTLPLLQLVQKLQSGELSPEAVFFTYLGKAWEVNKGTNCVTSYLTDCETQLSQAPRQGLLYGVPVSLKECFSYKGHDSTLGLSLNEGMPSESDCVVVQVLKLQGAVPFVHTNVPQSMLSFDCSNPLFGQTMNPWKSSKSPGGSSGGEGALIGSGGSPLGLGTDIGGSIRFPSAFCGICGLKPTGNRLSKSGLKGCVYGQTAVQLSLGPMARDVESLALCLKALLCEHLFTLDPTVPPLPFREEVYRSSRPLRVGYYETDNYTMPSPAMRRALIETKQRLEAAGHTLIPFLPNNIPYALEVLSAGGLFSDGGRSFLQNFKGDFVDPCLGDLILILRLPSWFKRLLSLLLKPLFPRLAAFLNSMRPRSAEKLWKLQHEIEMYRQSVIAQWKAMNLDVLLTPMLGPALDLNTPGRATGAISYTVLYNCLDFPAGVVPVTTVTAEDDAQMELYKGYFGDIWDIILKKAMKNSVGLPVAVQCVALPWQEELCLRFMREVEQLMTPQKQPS
Procedure: Error values presented with Ki s should be considered goodness-of-fit estimates derived from propagation of errors treatment of data. They are not necessarily an indication of reproducibility.
Twelve to fourteen rat livers were sectioned and placed in 300 mL of 1 mM NaHCO3. The solution of diced liver was strained and washed with additional 300 mL of 1 mM NaHCO3. Any conspicuous connective tissue was removed. The liver was transferred to a fresh 800 mL of 1 mM NaHCO3, stirred and then transferred in 400 mL aliquots to a blender. Blended liver aliquots were combined and filtered through 8 layers of cheesecloth. This was diluted to 1.0 L with 1 μM NaHCO3 and centrifuged at 6000 rpm for 20 minutes at 40° C. (Beckman JA-17 rotor). The supernatant was decanted, the pellets resuspended in 1 mM NaHCO3, combined and dounce homogenized. Centrifugation, decantation and resuspension/homogenization were repeated to give a final volume of approximately 90 mL. The homogenate was added to 2 volume equivalents of 67% sucrose, mixed thoroughly, and transferred to ultracentrifuge compatible tubes. The tubes were topped with 30% sucrose and spun at 27,000 for 2 hours (SW-28 rotor). The middle yellow band was removed from the sucrose gradient, combined, resuspended in 1 mM NaHCO3, and dounce homogenized. The sample was further centrifuged at 17,000 rpm for 45 minutes at 4° C. (JA-17 rotor). The supernatant was removed, the pellets resuspended in 100 mM Na2 CO3, dounce homogenized and left on ice for 30 minutes. The solution was centrifuged at 27,000 rpm for 1 hour (SW-28 rotor), the supernatant was decanted and the pellet resuspended in 15 mL of 50 mM Tris HCl, pH 7.4 with 1 mM EDTA, and homogenized with a dounce homogenizer. This material was divided into multiple aliquots and frozen at -78° C. until use. Each enzyme sample was frozen once only.

[2] = Extent of hydration / hemiacetal formation of inhibitor carbonyl by 1H and 13C NMR; assay type: physicochemical; details: for conversion to hemiacetal: CD3OD, NMR
Text: FIG. 2 illustrates ^1 H NMR and ^13 C NMR data to establish and quantitate the addition of CD3 OD or D2 O to the electrophilic carbonyl in CD3 OD or acetone-d6. […] Expected trends follow 11>12>8>6≥4.

animals = details: cited from earlier work; for somnolescent activity: in vivo
rat = test: Sleep monitoring in rat after intra-abdominal injection, electrophysiological methods; assay type: in vivo; details: intraperitoneal, mineral oil, four hours
Procedure: Another aspect of the invention is directed to a method for inducing sleep within an oleamide sensitive animal by administrating an effective dose of an […] of oleamide hydrolase. A preferred […] is compound 6. Compound 6 was dissolved in mineral oil and an effective dose was injected into the peritoneum of a rat by intra-abdominal injection. Sleep was monitored for the following four hours. Total sleep time was determined by standard electrophysiological methods. An increase of deep slow-wave sleep (SWS) with a reduction of the waking period was observed.

oleamide hydrolase [3] = molecular target: T1, oleamide hydrolase; test: Determination of Km for oleamide (Lineweaver-Burke plot); assay type: biochemical
Procedure: The potency of the inhibitors was determined using an ion selective electrode to measure the production of ammonia as the result of the hydrolysis of 100 μM oleamide (~20 Km) by a membrane bound preparation of oleamide hydrolase. […] Inhibition constants were determined by the Dixon method (FIGS. 4-6).
The enzyme was used as a crude, heterogenous, membrane-containing preparation from rat liver. […] Within solubility limits, all inhibitors achieved 100% inhibition of activity at concentrations of greater than 100 Ki. No detectable activity was found in the absence of added oleamide.
The Km for oleamide was determined as the average Km obtained from four independent assays. Each independent Km was obtained from weighted linear fit of data in a Lineweaver-Burke plot. A fifth concurring Km was obtained as a result of the determination of oleic acid inhibition by non-linear methods. The rate data was fit with the standard Michaelis-Menten kinetic equation.

oleamide hydrolase [4] = molecular target: T1, oleamide hydrolase; test: pH-rate dependence of oleamide hydrolase cleavage of oleamide; assay type: biochemical; details: cleavage of compound 1
Procedure: FIG. 12 illustrates the equations used to determine the pH-Rate dependence. The rate was obtained from the linear portion of the curve which was fit using a standard least squares procedure. These rates were replotted against pH and fit with the shown equation by a weighted non-linear least-squares method.
Crude enzyme was added to a solution of 200 μM oleamide (approximately the solubility limit) 1 in 20 mL buffer at the appropriate pH, containing 5% DMSO. (Concentrations of up to 20% DMSO had only minimal effect on enzyme rates.) A 50 mM sodium citrate/Bis-tris buffer was used for data points in the pH 4-9 range. A 50 mM Bis-tris/CAPS was used for data points in the 8-11 range. At pH 12, the solution was assumed to be self-buffering. At periodic time intervals, 1 mL aliquots were removed and diluted with 9 mL pH 14 buffer. Ammonia concentrations were measured with an ion-selective ammonia electrode (Orion) connected to a 720 A meter (Orion), calibrated against known standards. The rate was obtained from the linear portion of the curve which was fit using a standard least-squares procedure. […]

[5] = Solubility of oleamide in assay buffer; assay type: physicochemical; details: buffer with 5% dmso, organic solvent or mixture; buffer containing 5% DMSO; read-out: solubility limit
[6] = Ammonia production from oleamide in the absence of enzyme; assay type: physicochemical; details: 100 μM oleamide, pH 10.0
Procedure: The potency of the these compounds against oleamide hydrolysis was evaluated using an ion-selective ammonia electrode (ATI/Orion) to directly measure ammonia formation as the product of the reaction. All Ki s except for that of oleic acid were determined by the Dixon method. (X intercepts of weighted linear fits of [I] versus 1/Rate plots at a constant substrate concentration were converted to Ki 's using the formula Ki =-Xint /[1+[S]/Km ].) The oleic acid Ki was obtained from a non-linear weighted least-squares fit of rate versus substrate and inhibitor concentrations. The assays were done with constant stirring in 10 mL 50 mM CAPS buffer (Sigma) adjusted to pH 10.0, the pH at which the rate of enzymatically catalyzed oleamide hydrolysis is maximal. In all cases which involved Dixon analysis, the substrate concentration was 100 μM. The oleic acid Ki was determined over a range of substrate concentrations from 10 to 100 μM. Substrate and inhibitors were dissolved in DMSO prior to addition to the 50 mM CAPS buffer, generating a final DMSO assay concentration of 1.67%. […] The enzyme concentration was adjusted to produce a rate of roughly 0.2 μM/min in the absence of inhibitor and the rate of ammonia production observed over a period of 7 to 10 minutes.
The enzyme was used as a crude, heterogenous, membrane-containing preparation from rat liver. […]

[7] = pH 10.0, 100 μM oleamide, Dixon method, read-out: inhibition constant (Ki,app)
[8] = pH 10.0, 100 μM oleamide, Dixon method, read-out: Ki

Compound: [Cl][Hg][Cl] [HgCl2, reference compound]
- inhibition of oleamide hydrolase (in words) (oleamide hydrolase [1]): can be inhibited
- IC50 (oleamide hydrolase [1]; HgCl2): 700 nM
- Ki (oleamide hydrolase [1]; HgCl2, read-out: Ki, app): 37 nM

Compound: CCCCCCCCCCCCCCCCCC(=O)C(F)(F)F [Compound 15]
- hydration of carbonyl (in words) [2]: almost entirely as hydrates

Compound: CCCCCCCCCCCCCCCC(=O)C(O)(O)C(=O)OC(C)(C)C [Compound 11, tert-Butyl 3-Oxo-2,2-dihydroxyoctadecanoate]
- Ki (oleamide hydrolase [1]; [7]): 150 nM
- hydration of carbonyl (in words) [2]: fully hydrated
- conversion to hemiacetal [2]: 100%

Compound: N [ammonia]
- somnolescent activity (animals): neither of which demonstrate somnolescent activity

Compound: CCCCCCCC/C=C\CCCCCCCC(=O)C(F)(F)F [Compound 12, 1,1,1-Trifluoro-10Z-nonadecen-2-one]
- Ki (oleamide hydrolase [1]): 1.2 nM
- preference for cis double bond at 9 position (oleamide hydrolase [1]): approximately an order of magnitude more tightly than the trans double bond containing 14 or the saturated derivative 15
- relative binding (in words) (oleamide hydrolase [1]): bind equally tightly
- type of inhibition (Lineweaver-Burke plot) (oleamide hydrolase [1]): competitive
- hydration of carbonyl (in words) [2]: almost entirely as hydrates
- conversion to hemiacetal [2]: 100%

Compound: c1cc(SSc2ccncc2)ccn1 [4,4'-dithiodipyridine disulfide, reference compound]
- inhibition of oleamide hydrolase (in words) (oleamide hydrolase [1]): can be inhibited

Compound: O=S(=O)(F)Cc1ccccc1 [phenylmethylsulfonyl fluoride, reference compound]
- inhibition of oleamide hydrolase (in words) (oleamide hydrolase [1]): can be inhibited

Compound: CCCCCCCC/C=C\CCCCCCCC(=O)O [oleic acid, cis-9-octadecenoic acid, reference compound]
- Ki (oleamide hydrolase [1]; pH 10.0, non-linear weighted least-squares fit, 10 to 100 μM oleamide, read-out: Ki): 6000 nM
- somnolescent activity (animals): neither of which demonstrate somnolescent activity

Compound: CCCCCCCC/C=C/CCCCCCCC(=O)C(F)(F)F [Compound 14, 1,1,1-Trifluoro-10E-nonadecen-2-one]
- hydration of carbonyl (in words) [2]: almost entirely as hydrates

Compound: O=C(O)CN(CCN(CC(=O)O)CC(=O)O)CC(=O)O [EDTA, reference compound]
- inhibition of oleamide hydrolase (in words) (oleamide hydrolase [1]): not by 1 mM EDTA

Compound: CCCCCCCC/C=C\CCCCCCCC(N)=O [Compound 1, cis-9-octadecenamide]
- dependence of reaction rate on substrate concentration (oleamide hydrolase [3]; 30-100 μM): essentially a zero order dependence on substrate concentration
- Km (oleamide hydrolase [3]; average of four independent assays): 5 ± 2 µM
- pH of rate maximum (oleamide hydrolase [4]): 10.0
- solubility [5]: ~200 µM (≈ 56.3 µg/mL)
- rate of ammonia production in the absence of enzyme [6]: only a very minimal rate of ammonia production
- quantity inducing physiological sleep (animals; injected intravascularly): nanomolar quantities

More lines, main results first:

- inhibition of oleamide hydrolase (in words) (oleamide hydrolase [1]): poor inhibition
Compound: CCCCCCCC/C=C\CCCCCCCC(OC)OC [Compound 16]

- relative binding (in words) (oleamide hydrolase [1]; comparison between inhibitors): binds more tightly
Compound: CCCCCCCC/C=C\CCCCCCCC(=O)C(N)=O [Compound 7, 2-Oxo-10Z-nonadecenamide]

- inhibition of oleamide hydrolase (in words) (oleamide hydrolase [1]): poor inhibition
Compound: CCCCCCCC/C=C\CCCCCCC(O)C(N)=O (stereo not drawn) [Compound 17, 2-Hydroxy-9Z-octadecenamide]

- mode of binding (in words) (oleamide hydrolase [1]): appeared to bind reversibly
- Ki (oleamide hydrolase [1]; [8]): 300 nM
Compound: CCCCCCCC/C=C\CCCCCCC(Cl)C(=O)O (stereo not drawn) [Compound 20, 2-Chlorcoleic acid]

- increase in binding affinity, C-2 versus C-1 position of electrophilic carbonyl (α-keto esters) (oleamide hydrolase [1]; 8 versus 9): 6 fold
- relative binding (in words) (oleamide hydrolase [1]; comparison between inhibitors): bind equally tightly
- Ki (oleamide hydrolase [1]; [7]): 1.4 nM
- conversion to hemiacetal [2]: 75%
Compound: CCCCCCCC/C=C\CCCCCCC(=O)C(=O)OCC [Compound 8, Ethyl 2-Oxo-9Z-octadecenoate]

- relative binding, C-2 versus C-1 position of electrophilic carbonyl (aldehydes) (oleamide hydrolase [1]; 5 versus 4): five times more tightly than 4
Compound: CCCCCCCC/C=C\CCCCCCC=O [Compound 5, 8Z-Heptadecenal]

- Ki (oleamide hydrolase [1]; [8]): 18000 nM
Compound: CCCCCCCC/C=C\CCCCCCCC(=O)C=[N+]=[N-] [Compound 21, 1-Diazo-10Z-nonadecen-2-one]

- conversion to hemiacetal [2]: 48%
Compound: CCCCCCCC/C=C\CCCCCCC(=O)C(N)=O [Compound 6, 2-Oxo-9Z-octadecenamide]
- increase of deep slow-wave sleep (SWS) (rat): approximately 30%
- reduction of waking (rat): a similar percent of reduction of waking

- hydration of carbonyl (in words) [2]: almost entirely as hydrates
Compound: CCCCCCCC/C=C\CCCCCCC(=O)C(F)(F)F [Compound 13, 1,1,1-Trifluoro-9Z-octadecen-2-one]

- conversion to hemiacetal [2]: 47%
Compound: CCCCCCCC/C=C\CCCCCCCC=O [Compound 4]

- time dependence of inhibitory activity (oleamide hydrolase [1]; first fifteen minutes of incubation, up to solubility limits): time independent but moderate inhibition
- Ki (oleamide hydrolase [1]; [8]): 700 nM
Compound: CCCCCCCC/C=C\CCCCCCCC(=O)CCl [Compound 3, 1-Chloro-10Z-nonadecen-2-one]

- inhibition of oleamide hydrolase (in words) (oleamide hydrolase [1]): poor inhibition
Compound: CCCCCCCC/C=C\CCCCCCC(O)C(=O)O (stereo not drawn) [Compound 18]

Reference: patent US6096784A, “Inhibitors of oleamide hydrolase” (The Scripps Research Institute, priority 1999, dated 2000)
